Where no end group is shown, it is not given here. [ ]: non-standard residue; d: D form. Aib = CC(C)(N)C(=O)O
Tests used:
Format in all cases: in vivo
APP/PS1 transgenic mice = assay: Immunohistochemical measurement of beta-amyloid plaque load in the cortex of APP/PS1 transgenic mice
Text: Animal models have been developed to test novel drugs. A standard model for Alzheimer's disease is transgenic mice that express human mutated genes for amyloid production that are known to induce Alzheimer's disease in humans. These APP/PS1 transgenic mice recapitulate some of the symptoms of Alzheimer's disease such as the aggregation of amyloid in the brain, memory loss and the loss of synapses (Radde et al., 2006).
The APP/PS1 mice express human Swedish mutated APP and human mutated presenilin-1 which induce Alzheimer's Disease in humans.
The dose of peptide tested was 10 nmol/kg body weight. The peptides were administered by a once-daily intraperitoneal injection for 8 weeks. Saline injections were administered as a control. Six animals per group were injected with a peptide or a saline control.
Animals (6 per group) were perfused transcardially with 30 ml of ice-cold PBS and 30 ml of ice-cold 4% paraformaldehyde to postfix the brain. The brains were removed and placed in fresh 30% sucrose solution in PBS to cryoprotect tissue and cut at a thickness of 40 μm on a cryostat. Sections were chosen according to stereological rules, with the first section taken at random and every 5th section afterwards. Between 7 and 13 sections were analysed per brain.
Immunostaining techniques were used to assess the neuronal plaque load (anti beta-amyloid rabbit polyclonal antibody (1:200, rabbit polyclonal-Invitrogen 71-5800) and of synaptophysin (polyclonal rabbit anti-synaptophysin primary antibody, 1:2000, Abcam, Cambridge, UK) to measure the amount of synapses in the cortex. Brain samples were first exposed to 99% formic acid for 7 minutes and then washed 3 times for 10 minutes in TBS. Pre-treatment with 99% formic acid is known to drastically increase the detection of beta-Amyloid in formalin-fixed brain samples. Then samples were incubated in 0.3% H2O2 (Sigma Aldrich; Cat.-No.: 516813) in TBS for 30 minutes on the shaker to deplete endogenous peroxides activity, and were 3 times washed in TBS for 10 minutes afterwards.
To increase permeability of membranes in the brain tissue, samples were exposed to 0.3% Triton X-100 (Sigma Aldrich; Cat.-No.: 516813) in TBS for 10 minutes on the shaker. Unspecific proteinophilic binding in the tissue was saturated by incubating the samples with 5% goat serum (Gibco; Cat.-No.: 16210-064) in TBS for 30 minutes on the shaker.
A primary antibody against beta-Amyloid or synaptophysin was added and incubated overnight on the shaker at 4° C. The antibody was polyclonal and raised against a synthetic beta-Amyloid 1-43 peptide in rabbit. The primary antibody was used in a final dilution of 1 to 250 in TBS containing 2% goat serum and […]. […]

[1] = system: PI3K/AKT/GSK3β signalling pathway; assay: Western blotting for hippocampal levels of PI3K/AKT/GSK3β; settings: APP/PS1 mice; FIG. 11; N=6 per group
Text: Materials and methods in Example 2 are the same as Example 1 except when stated. Reagents used in Example 2 only include antibodies to p-PI3Kp85, PI3Kp85, p-Akt (ser473), Akt, p-GSK3β ([…]), and GSK3β from Abcam, Inc. Cambridge, UK. The antibody to p-tau (AT8) from Thermo Scientific USA. Mouse Anti-β-actin, Anti-Rabbit IgG, Anti-mouse IgG, CY3-Anti-mouse IgG, RIPA Lysate, BCA Protein Assay Kit, DAPI staining solution and Anti-fluorescence decay agent from Boster (Wuhan, China). The hippocampi of mouse were dissected and homogenized in tissue protein extraction reagent, and protein concentration was measured using BCA Protein Assay Kit. A total of 50 μg of protein was used from each sample. Sample proteins were separated on 12% SDS-polyacrylamide gels. After that, the proteins were transferred onto PVDF membranes and nonspecific binding was blocked with 5% BSA. A primary antibody was used to incubate the membranes overnight at 4° C., followed by a secondary antibody for 2 h. The optical density of the target strip (p-PI3K, t-PI3K, p-AKT, t-AKT, p-GSK3β and t-GSK3β) was analyzed by using a gel image processing system. Data were analysed using a one-way ANOVA with post-hoc Bonferroni tests. The results are illustrated in FIGS. 5 to 11.

C57BL/6 mice given MPTP = assay: Rotarod motor control test in the MPTP Parkinson mouse model; settings: 10 nmol/kg i.p. once daily for 2 weeks, FIG. 3, N=6 per group
Text: A standard model to induce Parkinson like symptoms in mice is the injection of the chemical (MPTP) (Li et al., 2009). This chemical impairs or kills neurons in the brain that produce dopamine. The mice develop motor impairments, and the dopaminergic neurons in the brain are reduced in numbers and function. The enzyme tyrosine hydroxylase (TH) is required to synthesise dopamine. A loss of TH signifies a loss of dopamine production (Harkavyi et al., 2008).
Adult male C57BL/6 mice were given the dopaminergic toxin MPTP (20 mg/kg in 0.1 mL of PBS i.p. at 2-h intervals of 4 doses MPTP; Sigma) or vehicle (PBS) for one day. This treatment selectively affects dopaminergic neurons and induces Parkinson-like symptoms in mice.
The dose of peptide tested was 10 nmol/kg body weight. The peptides were administered by a once-daily intraperitoneal injection for 2 weeks. Saline injections were administered as a control. Six animals per group were injected with a peptide or a saline control.
The rotarod consists of a rotating pole that accelerates over time. Mice are placed on the rod, and motor skills are tested by accelerating the rotation. As the rotation increases, animals lose grip and fall on a cushion located below the rod. […] Each animal's endurance time was recorded, and the average was calculated. Data were analysed using a one-way ANOVA with post-hoc Bonferroni tests.

For “YXEGTFTSDYSIYLDKQAAXEFVNWLLAGGPSSGAPPPSKRRQRRKKRGY-NH2 (Y[Aib]EGTFTSDYSIYLDKQAA[Aib]EFVNWLLAGGPSSGAPPPSKRRQRRKKRGY-NH2) [DA5, No. 12; X=aminoisobutyric acid]”, the “beta-amyloid plaque load in the cortex (% area positive for beta amyloid in cross sections of the brain cortex)” value (APP/PS1 transgenic mice; 10 nmol/kg body weight, once-daily intraperitoneal injection for 8 weeks, FIG. 1, N=6 per group) was “reduces beta-amyloid plaque load”, the “beta-amyloid plaque load compared with the single GIP or GLP-1 analogues” value (APP/PS1 transgenic mice; 10 nmol/kg i.p. once daily for 8 weeks, FIG. 1) was “superior to the single GIP or GLP-1 analogues” and the “activation of GSK3β / PI3K/AKT signalling (western blot, hippocampus)” value [1] was “prevents excessive activation of GSKβ by upregulating P13/AKT signalling”. The “impairment of motor skills (rotarod endurance time)” value (C57BL/6 mice given MPTP) was “protect mice from an impairment of motor skills induced by MPTP”.
